Among the test systems are NCI-H460 lung; NCI-H522 lung; SF-295 CNS; SNB-75 CNS; CCRF-CEM leukemia; HCT-15 colon; SF-268 CNS; EKVX NSCLC; SR leukemia; NCI-H226 lung.
Holding throughout (assay): inhibition of tumour cell growth, NCI panel, 48 h

Where “and” joins values, the source holds several entries; their conditions need not be identical. Identical values can stand only once.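 Where inhibition never reached the appropriate level, the endpoint shown equals the highest concentration tested. Otherwise, values were interpolated linearly from a five-concentration, 48-hour dose response in 96-well plates. GI50 marks 50% less growth. TGI: total growth inhibition.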

For the compound `O=C(O)Cn1ccnc1[N+](=O)[O-]`, the TGI with NCI-H460 lung, in the assay with NCI-H522 lung, in the assay with SF-295 CNS, in the assay on SNB-75 CNS, with CCRF-CEM leukemia and in the assay on HCT-15 colon was above 100 µM each time. Moreover, the TGI in the assay with SF-268 CNS, with EKVX NSCLC, in the assay with SR leukemia and with NCI-H226 lung was above 100 µM throughout.

Consider `COc1cc2cc(Oc3ccc(NC(=O)c4cccc5c4OCCO5)cc3)c(C)nc2cc1OC`, for which the GI50 was 8.36 µM in the assay with NCI-H460 lung; 4.28 µM in the assay on NCI-H522 lung; 2.91 µM in the assay on SF-295 CNS; 4.06 µM with SNB-75 CNS; 4.18 µM with CCRF-CEM leukemia; 7.87 µM in the assay with HCT-15 colon. Also, the GI50 with SF-268 CNS is 14.4 µM; in the assay on EKVX NSCLC it was 5.32 µM; in the assay on SR leukemia it was 4.12 µM; with NCI-H226 lung, 3.21 µM. For the same compound, the TGI with NCI-H460 lung is above 100 µM; in the assay with NCI-H522 lung, 45.1 µM; in the assay with SF-295 CNS, above 100 µM; in the assay on SNB-75 CNS, 53.1 µM; in the assay on CCRF-CEM leukemia, above 100 µM; in the assay with HCT-15 colon it was above 100 µM. The TGI in the assay on SF-268 CNS was above 100 µM; with EKVX NSCLC, above 100 µM; in the assay with SR leukemia, above 100 µM; in the assay on NCI-H226 lung, 21.2 µM.

As for `O=C(Nc1ccccc1O)c1ccc(CNC(=O)c2ccsc2Nc2ccnc(C(F)(F)F)c2)cc1`, the GI50 in the assay on NCI-H460 lung was 2.38 µM; with NCI-H522 lung, 1.77 µM; with SF-295 CNS it was 1.86 µM; in the assay on SNB-75 CNS, 2.57 µM; with CCRF-CEM leukemia, 0.32 µM; in the assay with HCT-15 colon, 3.31 µM. The GI50 in the assay on SF-268 CNS is 2.69 µM; with EKVX NSCLC it was 3.09 µM; with SR leukemia it was 2.81 µM; with NCI-H226 lung, 2.48 µM. For the same compound, the TGI with NCI-H460 lung was 11.4 µM; with NCI-H522 lung, 6.86 µM; in the assay on SF-295 CNS, 4.51 µM; in the assay with SNB-75 CNS, 43.5 µM; in the assay with CCRF-CEM leukemia, above 100 µM; in the assay on HCT-15 colon, 18.9 µM. Besides, the TGI in the assay on SF-268 CNS was found to be 15.1 µM; in the assay with EKVX NSCLC, 14.5 µM; with SR leukemia, 29.1 µM; in the assay on NCI-H226 lung, 30.9 µM.

As for `CCCn1cnc2c(SCc3ccccc3)nc(N)nc21`, the GI50 with NCI-H460 lung is 42.2 µM; in the assay with NCI-H522 lung it was above 100 µM; with SF-295 CNS, 32.1 µM; in the assay with SNB-75 CNS, above 100 µM; in the assay on CCRF-CEM leukemia, 72.9 µM; in the assay on HCT-15 colon it was 37.8 µM. Besides, the GI50 was above 100 µM in the assay with SF-268 CNS, 67.3 µM with EKVX NSCLC, 49.6 µM in the assay with SR leukemia and 30.5 µM in the assay with NCI-H226 lung. The TGI in the assay on NCI-H460 lung, in the assay with NCI-H522 lung, in the assay with SF-295 CNS, with SNB-75 CNS, in the assay with CCRF-CEM leukemia and in the assay on HCT-15 colon was above 100 µM each time. Further, the TGI in the assay on SF-268 CNS, in the assay on EKVX NSCLC, with SR leukemia and with NCI-H226 lung was above 100 µM in each case.

As for `COc1ccc(C2NCCc3c2[nH]c2ccccc32)cc1` (stereo unspecified), the TGI in the assay with NCI-H460 lung, in the assay on NCI-H522 lung, with SF-295 CNS, with SNB-75 CNS, in the assay with CCRF-CEM leukemia and in the assay with HCT-15 colon was above 100 µM in each case. Also, the TGI is above 100 µM in the assay on SF-268 CNS, above 100 µM with EKVX NSCLC, 91.5 µM with SR leukemia and above 100 µM in the assay with NCI-H226 lung.

On to `CC[C@H](C)[C@H](NC(=O)[C@H]1CCCCN1C)C(=O)N(C)[C@H](C[C@@H](OC(C)=O)c1nc(C(=O)N[C@@H](Cc2ccccc2)C[C@H](C)C(=O)OC)cs1)C(C)C`, for which the GI50 in the assay on NCI-H460 lung was 0.000295 µM and 0.0025 µM; in the assay with NCI-H522 lung, 0.00028 µM and < 0.0025 µM; with SNB-75 CNS it was 0.000335 µM and 0.0025 µM; in the assay on CCRF-CEM leukemia, 0.000552 µM and 0.0025 µM; in the assay with HCT-15 colon, 0.000332 µM and 0.0025 µM; in the assay with SF-268 CNS, 0.000466 µM and 0.0025 µM. Further, the GI50 was 0.000751 µM and 0.0025 µM in the assay on EKVX NSCLC; 0.00234 µM and < 0.0025 µM in the assay on NCI-H226 lung. The TGI with NCI-H460 lung was above 25 µM; with NCI-H522 lung, 0.0135 µM and < 0.0025 µM; with SF-295 CNS, 0.000762 µM and 0.00468 µM; with CCRF-CEM leukemia it was 2.5 µM; in the assay with SF-268 CNS, above 25 µM; with EKVX NSCLC, above 25 µM. For the same compound, the TGI in the assay with SR leukemia was 9.59 µM; with NCI-H226 lung it was below 0.0025 µM.

These data come from PubChem BioAssay (NCI).
